From patent publication US20050249675A1, “Mucin synthesis inhibitors” (priority 2003, published 2005)
Entries after “also recorded” stand apart in the source; their conditions may differ. Where two headings read alike, the source gives them in different places.

Experiments:
[1] = tested on: MUC2; type: cell-based; settings: LTA from S. aureus; FIG. 22
[2] = tested on: CF mice (CF knock-out mice and CF AF508 mice); assay: CF mice body weight and survival on talniflumate chow; type: in vivo; settings: approximate dose of 100 mg/kg per os in chow
Protocol: Within two weeks of weaning, the osmotic agent treatment was discontinued and the mice were either placed on talniflumate containing chow or control chow. The CF mice consuming control chow lost 10-15% body weight and died (CF knock-out) or were euthanized (CF AF508) due to the animal's moribund state within 7 days post-osmotic agent. In contrast, the CF mice that consumed talniflumate (approximate dose of 100 mg/kg per os) gained 8-12% body weight and survived at least 26 days, at which time they were sacrificed to evaluate histopathology (see FIG. 20).

[3] = tested on: MUC5A/C secretion in hCLCA1 expressing H292 cells; assay: MUC5A/C secretion by ELLA in hCLCA1 expressing H292 cells; type: cell-based, human; parameters: key to ELLA: (+) = inhibition; (−) = no inhibition
[4] = tested on: H292 clone 15 cells; assay: ELLA for MUC5AC, H292 clone 15 cells (Example 11); type: cell-based, human; settings: MUC5AC in conditioned media, 48 hours, average of 3 experiments
Protocol: ELLA (Enzyme-Linked Lectin Assay) was used to determine the inhibitory effect of compounds on mucus production by H292 clone 15 cells. H292 clone 15 cells, a subclone from human pulmonary mucoepidermoid carcinoma cells overexpressing hCLCA1, were grown to confluent, followed by incubation with increasing concentrations of compounds for 48 hours. Conditioned media were collected and MUC5AC (the major secretory mucin in lungs) content was determined by ELLA measurement as described below. 96 well microtiter plates were coated with a mouse monoclonal antibody against human MUC5AC (1-13M1, NeoMarkers), then incubated with test conditioned media. Bound MUC5AC was detected by horseradish peroxidase-conjugated soybean lectin that has a high affinity towards highly-glycosylated proteins such as MUC5AC. Conversion of peroxidase substrate TMB (Tetramethylbenzidine Base) was quantified by reading at 450 nm. O.D. (optical density) readings were plotted against concentrations of compounds. Linear regression was used to derive the concentration at which O.D. was reduced by 50% (IC50) when compared to vehicle-treated cells.

[5] = tested on: NCI-H292/hCLCA1 cells; assay: AB/PAS staining of mucous glycoconjugates in NCI-H292/hCLCA1 cells; type: cell-based, human; settings: NFA 100 μM, MFA 125 or 250 μM, talniflumate 12.5, 25 or 50 μM; vs untreated cells
Protocol: For the determination of mucous glycoconjugate production, NCI-H292/ctl and NCI-H292/hCLCA1 (AAF 15) cells were cultured in 24-well plates for 3 days. Cells were then fixed with Formalin and mucous glycoconjugates were visualized by AB/PAS staining (Sigma). […] For chloride channel blockage studies, cells were cultured in the presence of niflumic acid (NFA) (Sigma) at 100 μM concentration, mefanamic acid (MFA) at 125 or 250 μM or talniflumate at 12.5, 25 or 50 μM, or media alone.
For the determination of mucous glycoconjugate production, NCI-H292/hCLCA1 cells were cultured in 24-well plates for 3 days with at concentrations of 0 to 150 μM of the talniflumate enantiomers or media alone (control). Cells were then fixed with Formalin and mucous glycoconjugates were visualized by AB/PAS staining (Sigma). […] In this assay both enantiomers were seen to inhibit muco-glycoconjugate production at concentrations>40 μM.

[6] = tested on: H292 clone 15 cells; assay: Alamar Blue cytotoxicity; settings: for Est. LD50 (Alamar Blue): H292 clone 15 cells, 48 hours, average of 3 experiments
[7] = target: T1, human chloride channel hCLCA1 (Homo sapiens, UniProt A8K7I4); assay: Patch clamp chloride current, NCI-H292 cell expressing hCLCA1; type: cell-based; settings: 5 micromolar talniflumate; 2 μM ionomycin and 2 mM calcium; positive voltage
T1 construct: expressed in transfected cells; host or cells: NCI-H292 (human pulmonary mucoepidermoid carcinoma)
T1 sequence (A8K7I4 22-914): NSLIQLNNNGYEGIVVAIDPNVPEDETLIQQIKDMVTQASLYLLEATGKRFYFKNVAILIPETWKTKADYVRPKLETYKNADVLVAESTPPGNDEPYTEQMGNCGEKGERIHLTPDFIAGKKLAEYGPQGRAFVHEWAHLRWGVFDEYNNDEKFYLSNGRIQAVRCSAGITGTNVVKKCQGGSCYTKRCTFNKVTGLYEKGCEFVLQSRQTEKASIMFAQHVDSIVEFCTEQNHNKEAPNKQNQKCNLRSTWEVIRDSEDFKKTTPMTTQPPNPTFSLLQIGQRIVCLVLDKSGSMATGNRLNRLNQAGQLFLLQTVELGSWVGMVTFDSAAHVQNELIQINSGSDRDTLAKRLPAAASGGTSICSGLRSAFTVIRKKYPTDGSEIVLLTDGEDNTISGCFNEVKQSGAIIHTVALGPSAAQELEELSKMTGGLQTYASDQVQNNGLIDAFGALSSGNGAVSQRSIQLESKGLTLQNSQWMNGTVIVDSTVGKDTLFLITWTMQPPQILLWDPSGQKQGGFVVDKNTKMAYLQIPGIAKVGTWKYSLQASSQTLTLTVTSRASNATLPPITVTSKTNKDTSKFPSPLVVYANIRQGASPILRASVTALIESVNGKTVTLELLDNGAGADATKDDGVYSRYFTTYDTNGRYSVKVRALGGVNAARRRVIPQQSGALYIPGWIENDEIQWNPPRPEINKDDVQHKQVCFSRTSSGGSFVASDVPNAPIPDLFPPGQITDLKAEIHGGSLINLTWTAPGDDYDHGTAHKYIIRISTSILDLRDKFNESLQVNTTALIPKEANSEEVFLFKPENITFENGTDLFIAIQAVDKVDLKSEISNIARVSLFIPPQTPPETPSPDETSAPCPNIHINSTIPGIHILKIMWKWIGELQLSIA
Protocol: An NCI-H292 cell transfected with a plasmid expressing the human chloride channel hCLCA1 was patch clamped and chloride current (I) was measured over a range of voltages (V). Substantial chloride current was invoked by the addition of 2 μM ionomycin and 2 mM calcium (circles) compared to baseline (squares), indicating activation of hCLCA1.

[8] = tested on: mice sensitized to Aspergillus fumigatus; assay: Aspergillus fumigatus murine asthma model, talniflumate chow; type: in vivo; settings: oral; for Lung eosinophilia by bronchoalveolar lavage: talniflumate chow, vs sensitized mice fed standard chow
[9] = tested on: Muc5b; assay: Inhibition of Muc5b expression; type: cell-based; parameters: key: (+) = inhibition; (−) = no inhibition; settings: Table 2
Protocol: The effects of talniflumate derivatives on mucin production were also assayed for changes in ELLA and IC50 (Table 2) as described in the methods above.

[10] = tested on: activated Caco2 cells; assay: PAS staining for mucin in activated Caco2 cells; settings: activated Caco2 cells; 100 μm for NFA and 300 μm for DIDS; vs untreated cells
[11] = tested on: activated Caco2 cell line; assay: Viability of activated Caco2 cells; type: cell-based; settings: even higher concentrations of NFA; FIG. 3
[12] = tested on: activated LHL4 cells; assay: Eotaxin ELISA, activated LHL4 cells; type: cell-based; settings: increasing concentrations
Protocol: Activated LHL4 cells that express and secrete eotaxin have been produced and used to test for inhibitors of eotaxin production. These cells were assayed in vitro for eotaxin by an ELISA technique well known in the art (R&D Systems).

[13] = tested on: IL9 transgenic mice; assay: Mucin production in lungs of IL9 transgenic mice; type: in vivo; settings: IT once daily for three days; NFA 100 μg
Protocol: Certified virus-free male and female IL9 transgenic mice (IL9TG5-FVB/N) 5-6 weeks of age were bred in our laboratories. Male and female FVB/N mice 5-6 weeks of age were purchased from Jackson Laboratories (Bar Harbor Me.). Animals were housed in high-efficiency, particulate filtered air and allowed free access to food and water for 3 to 7 days prior to experimental manipulation. The animal facilities were maintained at 22° C. and the light:dark cycle was automatically controlled (10:14 hour light:dark).
Animals were phenotyped, naïve, or 24 hrs after receiving intra-tracheal (IT) shame (vehicle) treatment, or drugs in the same vehicle as was used in identically treated controls. Mice were treated IT once daily for three days. NFA (100 μg) or antibody to IL-9 were administered in PBS IT. Treatment responses were measured by the assessment of mucin inhibition by histologic exam (PAS staining of greater than 10 sections through the treated and control lungs or western blots of MUC 1, MUC2 and MUC3 expression from the same lungs.
The up-regulation of mucus production in the IL9 transgenic is specifically associated with increased steady-state mRNA levels of MUC2 and MUC5AC as shown by RT-PCR (FIG. 9).

[14] = tested on: mice sensitized by nasal aspiration of Aspergillus fumigatus antigen; assay: Aspergillus fumigatus antigen murine asthma model, intra-tracheal NFA; type: in vivo; settings: 100 μg NFA intra-tracheal, days 0-21

In the case of `O=C1OC(OC(=O)c2cccnc2Nc2cccc(C(F)(F)F)c2)c2ccccc21` (racemic) [Talniflumate, talniflumate], the “Lipoteichoic acid induction of MUC2 (luciferase RLU)” value [1] is reported as “modulated”, the Body weight gain [2] is reported as 8-12% and the Survival ([2]; then sacrificed) is reported as “at least 26 days”. For the same molecule, the “Inhibition of MUC5A/C secretion / mucin production (figure legends)” value [3] was “inhibition of mucin production”, the IC50 ([3]; Homo sapiens, NCI-H292/hCLCA1 cells, 0 through 150 μM, 48 hours, FIG. 26, read-out: IC50, inhibition of MUC5A/C secretion) was 36 µM and the IC50 ([4]; Homo sapiens, NCI-H292) was 33 µM. The “PAS positive staining muco-glycoconjugates” value [5] was “significantly fewer positive staining muco-glycoconjugates”, the “Est. LD50 (Alamar Blue)” value [6] was 108 µM and the “LD50 (Alamar Blue)” value ([6]; NCI-H292/hCLCA1 cells, concentrations up to 150 μM, FIG. 27) was > 150 µM. The Chloride Current [7] was “reduction in chloride current”, the “Lung eosinophilia by bronchoalveolar lavage” value [8] was “reduced the number of eosinophilic cells” and the “Lung eosinophilia by bronchoalveolar lavage” value ([8]; listed as talniflumate) was “inhibition of lung eosinophilia”. For the same molecule, the “Mucin (PAS) staining in lung” value ([8]; talniflumate containing chow, Asp-sens mice) was “reduced mucin staining; also recorded: inhibition of mucin over production”.
In the case of `O=C1OC(CC(=O)c2cccnc2Nc2cccc(C(F)(F)F)c2)c2ccccc21` (stereo not drawn) [4 (MSI 2216)], the “Inhibition of Muc5b Expression” value [9] is reported as “+”, the IC50 ([3]; Table 2, ELLA, read-out: IC50) is reported as 5 µM and the ELLA ([3]; Table 2, mucin production) is reported as “+”. The IC50 [4] was 3 µM and the “Est. LD50 (Alamar Blue)” value [6] was 32 µM.
For `O=C(O)c1cccnc1Nc1cccc(C(F)(F)F)c1` [NFA, niflumic acid], the “PAS positive staining mucin glycoconjugates” value [10] was “significantly fewer positive staining mucin glycoconjugates; also recorded: blocks mucin overproduction in vitro”, the “Viability of activated Caco2 cells” value [11] was “not affected; also recorded: did not effect their viability” and the Eotaxin production [12] was “Significant inhibition; also recorded: blocks epithelial activation including chemokine production”. For the same molecule, the “PAS positive staining muco-glycoconjugates” value [5] was “significantly fewer positive staining muco-glycoconjugates”, the “Mucin production in IL9 transgenic lungs” value [13] was “decreased mucin production” and the “Serum IgE levels” value [14] was “no effect”. For the same molecule, the Antigen-induced airway hyperresponsiveness ([14]; vs PBS) was “suppress airway hyperresponsiveness; also recorded: suppresses antigen-induced airway hyperresponsiveness”, the BAL lung eosinophilia ([14]; vs PBS) was “suppress; also recorded: reduces antigen-induced lung eosinophilia” and the “Over-production of mucus in the lung caused by exposure to antigen” value ([14]; vs PBS) was “suppress the over-production of mucus; also recorded: blocks increased mucin expression”.
